# US20100130549A1, “PSYCHOTROPIC COMPOUNDS, COMPOSITIONS AND METHODS OF USE” (priority 2007, published 2010)
# Legend:
# [1] = target: Serotonin (5-Hydroxytryptamine) 5-HT2A (Homo sapiens, UniProt P28223); assay: Radioligand binding assay, 5-HT2A
# From the text: (§1) . Table 1 provides data produced via a receptor binding assay and IC50 and Ki determination. […] In addition, the compound of formula (Ia) has a potent DAT inhibition, which is indicative of dopaminergic uptake inhibition and increased DA activity. In addition to the effect on SERT and DAT, the compound of formula (Ia) inhibited the transporter of Norepinephrine (NET), and several neurotransmitter's receptors like alpha2A and alpha2C receptors, alpha 1A and alphal C, 5HT2A and 5HT2C, signal histamine2 and dopamine D1. This specific profile is in line with the data on antidepressant, anxiolytic and moderate neuro-stimulation activity observed in the animal model studies.
# (§2) With regard to the data provided in Table 1, the biochemical assay results are presented as the percent inhibition of specific binding or activity throughout the report. For primary assays, only the lowest concentration with a significant response judged by the assays’ criteria, is shown in this summary. […] Unless otherwise requested, primary screening in duplicate with quantitative data (e.g., IC50±SEM, Ki±SEM and nH) are shown.
# [2] = target: Transporter, Serotonin (5-Hydroxytryptamine) (SERT) (Homo sapiens, UniProt P31645); assay: Radioligand binding assay, Serotonin transporter
# Sequence of Transporter, Serotonin (5-Hydroxytryptamine) (SERT) (P31645 whole entry): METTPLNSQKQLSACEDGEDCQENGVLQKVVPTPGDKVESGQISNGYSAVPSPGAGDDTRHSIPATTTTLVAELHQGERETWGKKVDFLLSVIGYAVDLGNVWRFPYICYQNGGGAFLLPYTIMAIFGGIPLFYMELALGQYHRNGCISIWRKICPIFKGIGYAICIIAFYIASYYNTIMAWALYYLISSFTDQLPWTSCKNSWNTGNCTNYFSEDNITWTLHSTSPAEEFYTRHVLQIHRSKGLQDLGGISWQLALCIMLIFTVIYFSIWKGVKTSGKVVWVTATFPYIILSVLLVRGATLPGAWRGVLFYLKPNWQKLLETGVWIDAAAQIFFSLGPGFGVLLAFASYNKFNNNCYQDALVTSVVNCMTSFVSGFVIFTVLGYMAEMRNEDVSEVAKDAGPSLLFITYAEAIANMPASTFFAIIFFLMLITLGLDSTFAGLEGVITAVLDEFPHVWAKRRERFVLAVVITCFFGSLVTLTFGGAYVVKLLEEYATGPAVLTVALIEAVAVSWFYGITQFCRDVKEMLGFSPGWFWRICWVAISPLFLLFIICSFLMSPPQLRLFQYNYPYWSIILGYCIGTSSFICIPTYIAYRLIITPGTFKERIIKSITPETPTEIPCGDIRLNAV
# From the text: as §2
# [3] = tested on: BALB/c mice; assay: Rotor rod test (motor activity); format: in vivo; conditions: 10 mg/kg p.o., 90 min after administration; vs controls
# Protocol: The test was performed 90 min after oral administration of the compounds. […] The rotor rod test involves placing the mouse on an elevated rotating bar. In this test, the mouse is placed on the bar such that it is facing the direction opposite to the rotation of the rod. The time lag to fall is determined.
# [4] = target: T1, Adrenergic α1B (Rattus norvegicus, UniProt P15823); assay: Radioligand binding assay, Adrenergic α1B
# T1 sequence (P15823 1-515): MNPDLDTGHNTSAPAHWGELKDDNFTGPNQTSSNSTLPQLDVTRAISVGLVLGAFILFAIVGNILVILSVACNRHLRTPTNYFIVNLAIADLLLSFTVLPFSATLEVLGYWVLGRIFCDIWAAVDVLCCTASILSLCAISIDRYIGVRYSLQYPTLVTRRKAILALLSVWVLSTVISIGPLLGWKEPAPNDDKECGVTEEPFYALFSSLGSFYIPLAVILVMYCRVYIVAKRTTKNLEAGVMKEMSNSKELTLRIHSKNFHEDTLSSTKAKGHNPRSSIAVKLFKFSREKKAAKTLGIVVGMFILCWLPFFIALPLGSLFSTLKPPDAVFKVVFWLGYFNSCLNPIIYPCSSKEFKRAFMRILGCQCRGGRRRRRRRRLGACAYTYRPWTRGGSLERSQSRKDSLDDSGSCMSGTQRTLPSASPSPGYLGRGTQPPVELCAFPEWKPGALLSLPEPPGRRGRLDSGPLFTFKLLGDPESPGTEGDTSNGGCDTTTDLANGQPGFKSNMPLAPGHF
# From the text: as §1, §2
# [5] = target: T2, Serotonin (5-Hydroxytryptamine) 5-HT2C (Homo sapiens, UniProt P28335); assay: Radioligand binding assay, 5-HT2C
# T2 sequence (P28335 33-458): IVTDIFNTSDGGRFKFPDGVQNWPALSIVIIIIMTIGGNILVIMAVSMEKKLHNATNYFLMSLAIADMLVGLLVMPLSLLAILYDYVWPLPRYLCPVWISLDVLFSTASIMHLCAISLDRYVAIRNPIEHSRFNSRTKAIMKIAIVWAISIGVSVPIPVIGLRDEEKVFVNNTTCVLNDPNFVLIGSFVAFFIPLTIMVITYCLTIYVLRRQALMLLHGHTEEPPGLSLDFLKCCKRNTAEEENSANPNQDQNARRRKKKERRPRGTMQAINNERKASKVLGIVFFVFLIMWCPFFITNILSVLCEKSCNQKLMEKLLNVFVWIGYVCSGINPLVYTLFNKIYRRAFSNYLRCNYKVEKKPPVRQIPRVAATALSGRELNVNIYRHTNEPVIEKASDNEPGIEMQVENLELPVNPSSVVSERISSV
# From the text: as §1, §2
# [6] = target: Transporter, Norepinephrine (NET) (Homo sapiens, UniProt P23975); assay: Radioligand binding assay, Norepinephrine transporter
# Sequence of Transporter, Norepinephrine (NET) (P23975 whole entry): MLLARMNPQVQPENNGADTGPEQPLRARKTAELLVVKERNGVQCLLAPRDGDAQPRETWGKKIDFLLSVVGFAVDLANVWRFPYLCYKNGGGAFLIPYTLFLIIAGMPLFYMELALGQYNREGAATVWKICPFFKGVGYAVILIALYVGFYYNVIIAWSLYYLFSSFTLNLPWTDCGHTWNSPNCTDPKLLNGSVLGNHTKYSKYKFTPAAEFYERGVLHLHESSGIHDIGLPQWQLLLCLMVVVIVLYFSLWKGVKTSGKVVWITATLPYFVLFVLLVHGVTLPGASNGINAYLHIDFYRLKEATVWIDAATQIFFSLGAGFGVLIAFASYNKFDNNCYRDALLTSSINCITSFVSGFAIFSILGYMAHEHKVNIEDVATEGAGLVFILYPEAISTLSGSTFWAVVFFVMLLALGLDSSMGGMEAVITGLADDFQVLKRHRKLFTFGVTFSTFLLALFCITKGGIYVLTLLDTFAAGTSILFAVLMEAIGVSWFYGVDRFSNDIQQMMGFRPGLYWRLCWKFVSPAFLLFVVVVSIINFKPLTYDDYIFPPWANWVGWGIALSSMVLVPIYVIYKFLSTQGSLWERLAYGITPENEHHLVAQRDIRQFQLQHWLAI
# From the text: as §1, §2
# [7] = target: T3, Adrenergic α1D (Homo sapiens, UniProt P25100); assay: Radioligand binding assay, Adrenergic α1D
# T3 sequence (P25100 1-572): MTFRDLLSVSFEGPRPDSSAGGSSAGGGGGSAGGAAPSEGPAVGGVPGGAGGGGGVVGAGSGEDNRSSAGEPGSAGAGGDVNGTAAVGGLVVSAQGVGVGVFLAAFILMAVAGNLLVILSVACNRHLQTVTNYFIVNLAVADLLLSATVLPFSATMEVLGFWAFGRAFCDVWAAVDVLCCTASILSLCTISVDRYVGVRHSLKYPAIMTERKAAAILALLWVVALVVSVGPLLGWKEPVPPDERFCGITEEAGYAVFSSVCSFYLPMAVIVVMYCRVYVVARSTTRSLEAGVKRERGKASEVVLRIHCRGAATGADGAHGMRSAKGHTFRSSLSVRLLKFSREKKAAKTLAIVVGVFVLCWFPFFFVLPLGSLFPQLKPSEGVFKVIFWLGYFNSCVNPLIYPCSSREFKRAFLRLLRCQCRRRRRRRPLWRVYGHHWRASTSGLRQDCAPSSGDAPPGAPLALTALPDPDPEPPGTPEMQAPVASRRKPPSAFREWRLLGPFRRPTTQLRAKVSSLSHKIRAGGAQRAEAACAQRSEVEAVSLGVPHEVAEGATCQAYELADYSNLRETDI
# From the text: as §1, §2
# [8] = tested on: ICR mice; assay: Acute toxicity, oral administration; format: in vivo; conditions: for stimulation behavior (number of rearings): acute oral
# Protocol: FIG. 11B illustrates the effect of administering the compound of formula (Ia) on stimulation in ICR mice.
# Acute toxicity was assessed in male BALB/c mice that had been orally administered the compound of formula (Ta). The compound of formula (Ia) was administered orally to mice at doses of 20, 25, 75, and 100 mg/kg (4 animals/group). Animals were followed for behavioral changes such as stimulation (number of rearings), and sedation, after 24, 48 and 72 hr. Body weight was determined up to 7 days after drug administration.
# Sequence of Serotonin (5-Hydroxytryptamine) 5-HT2A (P28223 whole entry): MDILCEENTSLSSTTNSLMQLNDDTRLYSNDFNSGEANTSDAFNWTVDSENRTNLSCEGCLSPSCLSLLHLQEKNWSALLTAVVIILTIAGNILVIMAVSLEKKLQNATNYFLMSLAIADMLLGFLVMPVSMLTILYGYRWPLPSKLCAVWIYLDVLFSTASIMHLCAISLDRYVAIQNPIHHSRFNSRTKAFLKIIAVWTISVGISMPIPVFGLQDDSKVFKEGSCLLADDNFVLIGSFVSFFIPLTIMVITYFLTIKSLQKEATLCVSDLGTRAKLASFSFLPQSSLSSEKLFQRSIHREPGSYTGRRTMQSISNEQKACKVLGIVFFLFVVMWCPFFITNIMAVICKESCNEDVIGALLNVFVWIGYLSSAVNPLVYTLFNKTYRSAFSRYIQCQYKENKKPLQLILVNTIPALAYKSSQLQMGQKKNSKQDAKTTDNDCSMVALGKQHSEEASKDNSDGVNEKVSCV
smiles,measurement,setting,value
"CN[C@H]1CC[C@@H](c2ccc(Cl)c(Cl)c2)c2ccc(C#CCCCO)cc21 [compound Ia, (1S-cis)-4-(3,4-dichlorophenyl)-7-(5-hydroxy-1-pentyn-1-yl)-1,2,3,4-tetrahydro-N-methyl-1-naphthalenamine hydroiodide]",IC50,[1],3.37 µM
same,nH,[1],1.06
same,inhibition at 10 µM,[1]; read-out: % INH.,81%
same,Ki,[1]; read-out: K1,965 nM
same,IC50,[2],< 300 nM
same,inhibition at 0.03 µM,[2]; 0.03 μM,86%
same,Ki,[2]; read-out: SERT final Ki,1.09 nM
same,muscle strength and basic motor activity,[3],did not modify
same,IC50,[4],562 nM
same,nH,[4],1.08
same,inhibition at 1 µM,[4]; 1 μM,63%
same,Ki,[4]; read-out: K1,311 nM
same,IC50,[5],9.16 µM
same,nH,[5],2.15
same,inhibition at 10 µM,[5]; read-out: % INH.,54%
same,Ki,[5]; read-out: K1,4.8 µM
same,IC50,[6],623 nM
same,nH,[6],0.977
same,inhibition at 1 µM,[6]; 1 μM,62%
same,Ki,[6]; read-out: K1,618 nM
same,IC50,[7],2500 nM
same,nH,[7],1.04
same,inhibition at 3 µM,[7]; 3 μM,54%
same,Ki,[7]; read-out: K1,1230 nM
same,survival,[8]; acute oral up to 100 mg/kg,all animals survived
same,tolerability,[8]; acute oral up to 100 mg/kg,well tolerated
same,stimulation behavior (number of rearings),[8]; 24 and 48hr after administration,significant increase
same,stimulation behavior (number of rearings),[8]; after 72 hr,normalization
